ChEMBL document CHEMBL3046577, “Stereocontrolled synthesis of spirosuccinimide derivative of (+)-hydantocidin” (1995)
The source made the active and inactive calls. The rule behind the calls is not given here.

Columns and labels:
Assay type in all cases: functional
Eleusine indica = experiment: Herbicidal activity against Eleusine indica at 1000 ppm relative to control
Xanthium strumarium = experiment: Herbicidal activity against Xanthium strumarium (cocklebur) at 1000 ppm relative to control
Ambrosia artemisiifolia = experiment: Herbicidal activity against Ambrosia artemisiifolia (ragweed) at 1000 ppm relative to control

Structure (SMILES)	Activity (Eleusine indica)	Activity (Xanthium strumarium)	Activity (Ambrosia artemisiifolia)
O=C1NC(=O)[C@@]2(N1)O[C@H](CO)[C@@H](O)[C@H]2O	Active	Active	Active
O=C1C[C@@]2(O[C@H](CO)[C@@H](O)[C@H]2O)C(=O)N1	70%	90%	90%
